In patent US11865134B2, “Treatment of inflammation with glucocorticoids and angiopoietin-like 7 (ANGPTL7) inhibitors” (Regeneron Pharmaceuticals, Inc., priority 2021, dated 2024):

Tests used:
Assay type in all cases: in vivo
[1] = test system: ANGPTL7 WT mice; test: DEX-Ac-induced ocular hypertension in ANGPTL7 WT mice (IOP measurement); details: weekly periocular CF injections of DEX-Ac in both eyes, versus vehicle-treated, week 1 to 6
Excerpt: (§1) IOP measurements of DEX-Ac-treated (n=18) versus vehicle-treated (n=6) mice show IOP elevation from week 1 to 6; **p<0.01, ***p<0.001, ****p<0.0001.

[2] = test system: ANGPTL7; test: ANGPTL7 siRNA in DEX-Ac-induced ocular hypertension (steroid-induced IOP) in wild-type mice; details: WT mice; weekly periocular CF injections of DEX-Ac to both eyes; compared with vehicle-treated mice; starting 6-days post-injection
Excerpt: dsRNA were further assessed for their ability to reduce steroid induced IOP in vivo in wild-type mice. […] Mice were divided into following groups as shown in FIG. 4: a) Vehicle (n=4), b) Vehicle+PBS (n=6), c) DEX-Ac (n=12), d) DEX-Ac+siRNA #3 (n=14), and e) DEX-Ac+siRNA #5 (n=14). […] At Day 22, siRNA targeting ANGPTL7 (#3 and #5) were intravitreally injected into groups: d and e (DEX-Ac+siRNA #3 and DEX-Ac+siRNA #5) and IOP measurements continued to be recorded.

[3] = test system: ANGPTL7 KO mice; test: DEX-Ac-induced ocular hypertension in ANGPTL7 KO mice (IOP measurement); details: weekly periocular CF injections of DEX-Ac in both eyes, versus vehicle-treated, week 1 to week 6
Excerpt: as §1

Structure (SMILES): CC(=O)OCC(=O)[C@@]1(O)[C@H](C)C[C@H]2[C@@H]3CCC4=CC(=O)C=C[C@]4(C)[C@@]3(F)[C@@H](O)C[C@@]21C [DEX-Ac, dexamethasone-21-acetate]
- IOP elevation [1]: significantly elevated IOP
- IOP elevation [2]: rapid and significantly higher
- IOP elevation [3]: did not elevate IOP
